According to paper PMC4685742 (Nature chemical biology, 2015):

How the values were obtained:
iridoid synthase (CrISY) [1] = target: T1, iridoid synthase (CrISY) (Catharanthus roseus, UniProt K7WDL7, D87N); assay: co-crystal structure at […] Å; assay type: biochemical
iridoid synthase (CrISY) [2] = target: T1, iridoid synthase (CrISY); assay: co-crystal structure at […] Å; assay type: binding
[3] = target: T2, iridoid synthase (CrISY) G150A (Catharanthus roseus, UniProt K7WDL7, D87N/G150A); assay: co-crystal structure; assay type: binding
T2 sequence (K7WDL7 23-388 D87N/G150A): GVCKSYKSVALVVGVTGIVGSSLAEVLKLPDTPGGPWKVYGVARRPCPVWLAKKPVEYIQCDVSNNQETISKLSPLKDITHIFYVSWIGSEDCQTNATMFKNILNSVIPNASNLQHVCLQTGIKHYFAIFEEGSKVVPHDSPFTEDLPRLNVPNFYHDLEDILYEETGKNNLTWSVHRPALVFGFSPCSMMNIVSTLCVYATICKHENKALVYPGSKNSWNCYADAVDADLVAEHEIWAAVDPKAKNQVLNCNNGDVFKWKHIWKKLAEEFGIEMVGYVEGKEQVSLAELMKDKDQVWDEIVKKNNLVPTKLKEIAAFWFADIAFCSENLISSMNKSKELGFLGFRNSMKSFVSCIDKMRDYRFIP

T1 sequence (K7WDL7 23-388 D87N): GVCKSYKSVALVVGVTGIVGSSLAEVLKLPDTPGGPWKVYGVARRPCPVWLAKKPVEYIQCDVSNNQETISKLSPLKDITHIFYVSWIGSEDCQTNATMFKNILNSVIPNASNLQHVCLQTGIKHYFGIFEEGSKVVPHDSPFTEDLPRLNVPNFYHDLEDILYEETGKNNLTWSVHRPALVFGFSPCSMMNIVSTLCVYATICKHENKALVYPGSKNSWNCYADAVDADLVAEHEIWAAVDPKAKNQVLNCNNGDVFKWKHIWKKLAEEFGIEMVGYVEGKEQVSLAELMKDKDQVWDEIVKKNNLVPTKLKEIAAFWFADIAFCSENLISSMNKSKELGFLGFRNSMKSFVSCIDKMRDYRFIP

With `CC(C)=CCC/C(C)=C/C(=O)O` [GEA, geranic acid] the Ki (iridoid synthase (CrISY) [1]) was roughly 4 µM.

With `NC(=O)c1ccc[n+]([C@@H]2O[C@H](COP(=O)(O)OP(=O)(O)OC[C@H]3O[C@@H](n4cnc5c(N)ncnc54)[C@H](OP(=O)(O)O)[C@@H]3O)[C@@H](O)[C@H]2O)c1` [NADP+] the “co-crystal structure at 1.40 Å” value (iridoid synthase (CrISY) [2]) was “CrISY’s structure was solved in its apo form and with NADP^+ bound (PDB codes 5DCW and 5DCU, respectively)” and the co-crystal structure [3] was “The structure of CrISY^G150A was solved with NADP^+ bound (PDB code 5DCY)”.
